Assay results as given in US20040146987A1, “Rapidly degraded reporter fusion proteins” (Promega Corporation, priority 2002, published 2004).
Read-outs that look alike come from different tables or passages of the source.

Assays:
protein synthesis = test: inhibition of protein synthesis by cycloheximide; assay type: cell-based; conditions: 100 μg/ml
Procedure: The half-life of the protein encoded by plasmid pUbiq(Y)Luc 19 was determined in mammalian cells and compared to the half-lives of wild-type luciferase as well as fusion proteins comprising firefly luciferase and a mutant form of the C-ODC (Luc-PEST10). This was done by evaluating the luminescence emitted by cells that were transiently transfected with either plasmid pUbiq(Y)Luc19 or pwtLuc1 or pLuc-PEST 10, respectively, and then, for different periods of time, were exposed to the protein synthesis inhibitor cycloheximide. […] The estimated half-life of Ubiq(Y)Luc in these cells is about 170-200 minutes, which is far longer than the half-lives reported by Varshavsky (1992) for P-galactosidase containing a tyrosine residue at the N-terminus both in E. coli and S. cerevisiae (2 and 10 minutes, respectively).

[1] = literature; cited from earlier work
COS-7 cells = test: cycloheximide treatment of transiently transfected COS-7 cells, luminescence of accumulated luciferase; assay type: cell-based, African green monkey; conditions: cycloheximide 100 μg/ml
Procedure: For transfection, cells were grown to confluence in T25 flasks (Falkon, Becton Dickinson, Oxford). Transfection was conducted in 1 ml of serum-free RPMI-1640 that was mixed with 8 μg of plasmid DNA and 20 μl of Lipofectamine™2000 (GIBCO BRL). CHO cells were incubated in the transfection media for 30 minutes, HeLa cells for 1 hour, and COS-7 cells for 5 hours. Following incubation, cells were trypsinized with Trypsin-EDTA (GIBCO BRL) and collected by centrifugation. […]
To determine firefly luciferase activity, cells were lysed by freeze/thawing. Lysate from each well (100 μl) was transferred into corresponding wells of opaque 96 well plates (Falkon, Becton Dickinson, Oxford) containing 100 μl of Bright-Glo™ Luciferase Assay System (Promega) and luminescence intensity was determined using MLX Microtiter Plate Luminometer (Dynex). The activity of Renilla luciferase was measured by mixing 40 μl samples with 100 μl of assay reagent from the Renilla Luciferase Assay System (Promega).
The half-life of the protein encoded by plasmid pUbiq(Y)Luc 19 was determined in mammalian cells and compared to the half-lives of wild-type luciferase as well as fusion proteins comprising firefly luciferase and a mutant form of the C-ODC (Luc-PEST10). […]

S. cerevisiae = conditions: yeast / S. cerevisiae, cited from earlier work
E. coli = conditions: cited from earlier work

With C[C@@H]1C[C@@H]([C@H](O)CC2CC(=O)NC(=O)C2)C(=O)[C@@H](C)C1 [cycloheximide] the “time to complete inhibition of protein synthesis” value (protein synthesis) was ≤ 7.5 min.
In the case of “wild-type luciferase: wild-type firefly luciferase encoded by plasmid pwtLuc1”, the half-life [1] is listed as “about 3.68 hours” and the half-life (COS-7 cells) is listed as “about 7 hours”.
In the case of β-galactosidase, the half-life (S. cerevisiae) is listed as 20 h, the half-life (S. cerevisiae; listed as wild-type P-galactosidase) is listed as > 20 h and the half-life (E. coli) is listed as “more than 10 hours”.
